From publication PMC9837865 (Pharmacology, biochemistry, and behavior, 2022)
Like-named read-outs stand apart in the source and are kept apart here.

What was measured:
male ICR mice [1] = assay: Rectal temperature time course
hCB2 receptor [2] = biological target: T1, hCB2 receptor (Homo sapiens, UniProt P34972); assay: [3H]CP55,940 competition binding at hCB2 in HEK293 cell membranes; conditions: for greater affinity at hCB2 receptors than at hCB1: binding affinity ratio hCB2 over hCB1
hCB2 receptor [3] = biological target: T1, hCB2 receptor; assay: Agonist-stimulated [35S]GTPγS binding, hCB2 HEK293 membranes; conditions: for greater potency at hCB2 receptors than at hCB1 receptors: [35S]GTPγS potency ratio
hCB1 receptor [4] = biological target: T2, hCB1 receptor (Homo sapiens, UniProt P21554); assay: Agonist-stimulated [35S]GTPγS binding, hCB1 HEK293 membranes
T2 sequence (P21554 whole entry): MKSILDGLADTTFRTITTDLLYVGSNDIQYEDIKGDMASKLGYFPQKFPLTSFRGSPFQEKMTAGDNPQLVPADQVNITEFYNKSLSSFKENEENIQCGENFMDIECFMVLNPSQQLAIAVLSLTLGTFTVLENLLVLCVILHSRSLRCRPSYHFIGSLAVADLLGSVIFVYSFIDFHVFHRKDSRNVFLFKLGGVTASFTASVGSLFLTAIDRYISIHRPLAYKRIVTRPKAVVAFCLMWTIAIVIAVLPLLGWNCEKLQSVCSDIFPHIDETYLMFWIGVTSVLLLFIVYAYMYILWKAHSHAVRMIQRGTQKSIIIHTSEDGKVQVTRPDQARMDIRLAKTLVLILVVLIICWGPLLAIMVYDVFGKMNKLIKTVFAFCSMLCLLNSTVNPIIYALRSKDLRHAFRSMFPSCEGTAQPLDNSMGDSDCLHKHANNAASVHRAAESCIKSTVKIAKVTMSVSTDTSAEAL

hCB1 receptor [5] = biological target: T2, hCB1 receptor; assay: [3H]CP55,940 competition binding at hCB1 in HEK293 cell membranes; conditions: for Ki: value in parenthesis
male ICR mice [6] = assay: Rectal temperature dose-effect; conditions: for maximal hypothermia, difference from that produced by Δ9-THC: across the dose range tested
[7] = radiotelemetry, 6-h period; ref Sparkes et al., 2022; cited from earlier work
[8] = 3 mg/kg i.p., compared to vehicle at same timepoint
[9] = CB2 Ki, [3H]CP55,940 displacement, value in parenthesis
[10] = [35S]GTPγS Turnover CB2 EC50, value in parenthesis
[11] = [35S]GTPγS Turnover CB2 pEC50, pEC50 ± SEM
[12] = CB1 Ki, [3H]CP55,940 displacement
[13] = 10 mg/kg i.p., compared to vehicle at same timepoint
[14] = 100 mg/kg i.p., compared to vehicle at same timepoint
[15] = [3H]CP55,940 displacement, pKi ± SEM

T1 sequence (P34972 whole entry): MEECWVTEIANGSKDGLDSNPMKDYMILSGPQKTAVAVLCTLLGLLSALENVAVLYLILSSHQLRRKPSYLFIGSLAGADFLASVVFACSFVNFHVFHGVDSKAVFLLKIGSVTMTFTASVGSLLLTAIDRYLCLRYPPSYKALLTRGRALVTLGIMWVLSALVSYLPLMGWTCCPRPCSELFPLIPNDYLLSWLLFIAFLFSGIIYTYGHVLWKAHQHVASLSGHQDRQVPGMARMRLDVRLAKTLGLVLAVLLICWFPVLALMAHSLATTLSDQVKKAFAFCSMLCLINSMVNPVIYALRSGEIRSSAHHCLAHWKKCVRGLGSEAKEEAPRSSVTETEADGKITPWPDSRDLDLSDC

Row | Structure (SMILES) | duration of significant hypothermic effect (male ICR mice [1]; [8]) | Ki (hCB2 receptor [2]; [9]) | [35S]GTPγS Turnover CB2 Emax (hCB2 receptor [3]) | EC50 (hCB2 receptor [3]; [10]) | EC50 (hCB1 receptor [4]) | [35S]GTPγS Turnover CB1 Emax (hCB1 receptor [4]) | Ki (hCB1 receptor [5]; [12]) | maximal hypothermia, difference from that produced by Δ9-THC (male ICR mice [6]) | greater affinity at hCB2 receptors than at hCB1 (hCB2 receptor [2]) | greater potency at hCB2 receptors than at hCB1 receptors (hCB2 receptor [3]) | other results
1 | CCOC(=O)C(NC(=O)c1nn(CCCCCF)c2ccccc12)C(C)(C)C (stereo not drawn) [5F-EDMB-PINACA, ethyl 2-(1-(5-fluoropentyl)-1H-indazole-3-carboxamido)-3,3-dimethylbutanoate] | 3 h | 0.312 nM | 161 ± 8.36 3 % stimulation over basal | 0.442 nM | 1.6 nM | 387 ± 69.0 ^† 3 % stimulation over basal | 0.378 nM |  |  |  | EC50 (hCB2 receptor [3]; [11]): 0.437 nM
2 | COC(=O)[C@@H](NC(=O)c1cn(CCCCCF)c2ccccc12)C(C)(C)C [5F-MDMB-PICA, methyl (2S)-2-{[1-(5-fluoropentyl)-1H-indole-3-carbonyl]amino}-3,3-dimethylbutanoate] | 7 h | 0.437 nM | 189 ± 25.2 3 % stimulation over basal | 1.65 nM | 5.07 nM | 380 ± 27.4 ^^ 3 % stimulation over basal | 1.25 nM |  |  |  | 
3 | COC(=O)[C@@H](NC(=O)c1cn(CCCCCF)c2ccccc12)C(C)C [5F-MMB-PICA, methyl (2S)-2-[[1-(5-fluoropentyl)indole-3-carbonyl]amino]-3-methylbutanoate] |  | 3.4 nM | 77.8 ± 13.3 3 % stimulation over basal | 8.19 nM | 27 nM | 295 ± 21.2 ^† 3 % stimulation over basal | 6.45 nM | ≤ 1.5 °C |  |  | duration of significant hypothermic effect (male ICR mice [1]; [13]): 3 h
4 | CCCCn1nc(C(=O)N[C@@H](Cc2ccccc2)C(N)=O)c2ccccc21 [APP-BINACA, N-[(2S)-1-amino-1-oxo-3-phenylpropan-2-yl]-1-butylindazole-3-carboxamide] |  | 9.34 nM | 83.2 ± 2.72 3 % stimulation over basal | 2.24 nM | 344 nM | 180 ± 25.1 3 % stimulation over basal | 107 nM |  | 12 fold | 153 fold | duration of significant hypothermic effect (male ICR mice [1]; [14]): 4 h; hypothermia [7]: failed to produce any hypothermia
5 | CC1(C)C(C(=O)c2cn(Cc3ccc(F)cc3)c3ccccc23)C1(C)C [FUB-144, (1-(4-fluorobenzyl)-1H-indol-3-yl)(2,2,3,3-tetramethylcyclopropyl)methanone] |  | 1.19 nM | 194 ± 8.45 3 % stimulation over basal | 4.61 nM | 90.6 nM | 218 ± 31.5 4 % stimulation over basal | 27.2 nM | ≤ 1.5 °C | 23 fold | 20 fold | duration of significant hypothermic effect (male ICR mice [1]; 20 mg/kg i.p.): 1 h; Ki (hCB2 receptor [2]; CB2 pKi, [3H]CP55,940 displacement, pKi ± SEM): 1.17 nM
6 | O=C(NC12CC3CC(CC(C3)C1)C2)c1nn(Cc2ccc(F)cc2)c2ccccc12 [FUB-AKB48, N-((3s,5s,7s)-adamantan-1-yl)-1-(4-fluorobenzyl)-1H-indazole-3-carboxamide] |  |  | 131 ± 16.5 4 % stimulation over basal |  |  | 368 ± 55.5 ^‡ 4 % stimulation over basal |  | ≤ 1.5 °C |  | 16 fold | duration of significant hypothermic effect (male ICR mice [1]; [13]): ≤ 1 h; CB2 pKi (hCB2 receptor [2]; [15]): 9.08 ± 0.0188; Ki (hCB2 receptor [2]; read-out: CB2 Ki, [3H]CP55,940 displacement, value in parenthesis): 0.823 nM; [35S]GTPγS Turnover CB2 pEC50 (hCB2 receptor [3]; pEC50 ± SEM): 9.37 ± 0.318; EC50 (hCB2 receptor [3]; read-out: [35S]GTPγS Turnover CB2 EC50, value in parenthesis): 0.424 nM; [35S]GTPγS Turnover CB1 pEC50 (hCB1 receptor [4]; pEC50 ± SEM): 8.16 ± 0.162; EC50 (hCB1 receptor [4]; read-out: [35S]GTPγS Turnover CB1 EC50, value in parenthesis): 6.94 nM; CB1 pKi (hCB1 receptor [5]; [15]): 8.89 ± 0.265; Ki (hCB1 receptor [5]; read-out: CB1 Ki, [3H]CP55,940 displacement): 1.3 nM
7 | C=CCCCn1nc(C(=O)NC(C(=O)OC)C(C)(C)C)c2ccccc21 (stereo not drawn) [MDMB-4en-PINACA, methyl 3,3-dimethyl-2-{[1-(pent-4-en-1-yl)-1H-indazole-3-carbonyl]amino}butanoate] | 4 h | 0.213 nM | 63.6 ± 9.95 3 % stimulation over basal | 1.34 nM | 3.3 nM | 304 ± 42.8 ^‡ 3 % stimulation over basal | 1.4 nM |  | 7 fold |  | 
8 | C=CCCCn1cc(C(=O)NC(C(=O)OC)C(C)C)c2ccccc21 (stereo not drawn) [MMB-4en-PICA, methyl 3-methyl-2-[(1-pent-4-enylindole-3-carbonyl)amino]butanoate] |  | 15.6 nM | 77.6 ± 7.17 5 % stimulation over basal | 12.4 nM | 60.7 nM | 298 ± 31.9 ^‡ 4 % stimulation over basal | 39 nM | ≤ 1.5 °C |  |  | duration of significant hypothermic effect (male ICR mice [1]; 60 mg/kg i.p.): 5 h
9 | COC(=O)C(NC(=O)c1cn(Cc2ccc(F)cc2)c2ccccc12)C(C)C (stereo not drawn) [MMB-FUBICA, methyl 2-(1-(4-fluorobenzyl)-1H-indole-3-carboxamido)-3-methylbutanoate] |  | 22.5 nM | 52.1 ± 6.73 3 % stimulation over basal | 22.1 nM | 59.7 nM | 278 ± 29.3 ^† 3 % stimulation over basal | 12 nM | ≤ 1.5 °C |  |  | duration of significant hypothermic effect (male ICR mice [1]; 6 mg/kg i.p.): 2 h; EC50 (hCB2 receptor [3]; [11]): 22.4 nM; greater affinity for CB1 than CB2 (hCB1 receptor [5]; binding affinity ratio CB1 over CB2): approximately 2 fold
10 | CCCCCc1cc(O)c2c(c1)OC(C)(C)[C@@H]1CCC(C)=C[C@@H]21 [Δ^9-THC, Δ^9-tetrahydrocannabinol, reference compound] |  |  |  |  |  |  |  |  |  |  | time of peak hypothermic effect post-injection (male ICR mice [1]; 100 mg/kg i.p.): 1 to 3 h; duration of significant hypothermic effect (male ICR mice [1]; [14]): 8 h; time of peak hypothermic effects (male ICR mice [1]; single dose of each compound, as summarised in the discussion): 2 h; lowest dose that decreased temperature (male ICR mice [6]; i.p., compared to vehicle): 30 mg/kg
